Where a name gives a salt, the structure may show the parent alone.
Columns and labels:
Format in all cases: in vivo, Balb/c mice
[1] = system: pro-inflammatory cytokines in colon tissue of DSS-induced colitis mice; assay: Detection of pro-inflammatory cytokine levels in colon tissue by ELISA; settings: colon homogenate, per unit of total protein, 10 mg/kg intragastric, FIG. 5
Experimental: (§1) 1. Mice were randomly divided into a normal control group, a model group, a cyclosporin A (CsA) (20 mg/kg) treatment group, a 5-aminosalicylic acid (5-ASA) (50 mg/kg) treatment group, and the artemisinin derivative having anti-inflammatory immunosuppressive activity SM934, SM905, SM933 and SM735 (10 mg/kg each) treatment groups, with 8 mice per group. Except for the mice in the normal control group, for the mice in the other groups including the model group, the cyclosporine A treatment group, the 5-aminosalicylic acid treatment group, and the 4 artemisinin derivative treatment groups, 5% DSS was added to the drinking water for 7 consecutive days for induction of the intestinal inflammation model.
2. From the start of the induction to the end of the experiment, mice in the various treatment groups were given cyclosporine A, 5-aminosalicylic acid 5-ASA or4 artemisinin derivatives (10 mg/kg) respectively by intragastric administration to conduct a therapeutic intervention.
[IV] Detection of Pro-Inflammatory Cytokine Levels in Colon Tissue
1. […] After centrifugation, the protein concentration in the homogenate supernatant was quantified with a BCA kit.
2. ELISA was used to detect the content of pro-inflammatory cytokine in the supernatant, which was expressed as the content of cytokine per unit of total protein.

[2] = system: CD11b+ monocytes in colon tissue of DSS-induced colitis mice; assay: Inflammatory cell detection in colon cryosections by fluorescence confocal microscopy; settings: middle segment of colon, 10 mg/kg intragastric, FIG. 4
Experimental: FIG. 4 is photographs showing the photographing and analyzing results under fluorescence confocal microscopy in which, after the middle segments of colons of mice in various groups were cryosectioned, the nucleus were stained with DAPI fluorescent antibody, and the mononuclear lymphocytes were stained with anti-CD11b antibody.
as §1
2. […]
2. The middle segment of the colon was cryosectioned, stained with the corresponding fluorescent antibody, photographed under a fluorescence confocal microscope and analyzed.

[3] = system: macrophages and neutrophils in mesenteric lymph nodes and spleen of DSS-induced colitis mice; assay: Inflammatory cell detection by flow cytometry in mesenteric lymph nodes and spleen; settings: 10 mg/kg intragastric, FIG. 3A and 3B
Experimental: FIG. 3 is graphs showing the results of flow cytometry analysis, in which a single cell suspension was prepared from mesenteric lymph nodes and spleen of mice in various groups taken out at the end of the experiment, and the cells were labeled with the corresponding fluorescent antibody. FIG. 3A is for the isolated mesenteric lymph node cells, and FIG. 3B is for the isolated spleen lymphocytes, they were stained withanti-F4/80 antibody+anti-CD11b antibody (double positive cells were recognized as macrophages), and with anti-Gr-1 antibody+anti-CD11 b antibody (double positive cells were identified as neutrophils) respectively.
as §1
2. […]

C[C@@H]1CCC2[C@@H](C)[C@@H](OCCN)O[C@H]3O[C@@]4(C)CCC1[C@@]23OO4 (stereo partly drawn) [SM934, β-aminoarteether maleate]
reduced: levels of pro-inflammatory cytokines in colon tissue [1] | infiltration of monocytes (CD11b+ cells) in colon tissue [2] | proportion of macrophages (F4/80+ and CD11b+ double positive cells) [3] | proportion of neutrophils (Gr-1+ and CD11b+ double positive cells) [3]

From US20200030284A1, “MEDICAL USE OF ARTEMISININ DERIVATIVE FOR TREATING INFLAMMATORY BOWEL DISEASE” (SHANGHAI INSTITUTE OF MATERIA MEDICA,CHINESE ACADEMY OF …, priority 2017, published 2020)
